Tested on: MIA PaCa-2 cells
Assay: Bru-seq analysis for nascent RNA synthesis (log2FC of genes, GSEA gene sets)
Type: cell-based, human
Conditions: 4 h, MIA PaCa-2 cells
[1] = top upregulated protein-coding genes
[2] = upregulated gene sets, HALLMARK

Cc1cc(NC(=O)c2cnc(N3CCNCC3)cn2)c2ncccc2c1 [J28, N-(6-methylquinolin-8-yl)-5-(piperazin-1-yl)pyrazine-2-carboxamide]
log2FC UAP1L1 [1]: 1.26
log2FC ZC3H12A [1]: 1.27
ES AMUNDSON_GAMMA_RADIATION_RESPONSE (upregulated gene sets, C2): 0.673
ES BANDRES_RESPONSE_TO_CARMUSTIN_MGMT_48HR_DN (upregulated gene sets, C2): 0.612
ES CAMPS_COLON_CANCER_COPY_NUMBER_UP (upregulated gene sets, C2): 0.653
ES DACOSTA_UV_RESPONSE_VIA_ERCC3_UP (upregulated gene sets, C2): 0.506
ES DAIRKEE_TERT_TARGETS_UP (upregulated gene sets, C2): 0.528
ES DEBIASI_APOPTOSIS_BY_REOVIRUS_INFECTION_DN (upregulated gene sets, C2): 0.488
ES DIRMEIER_LMPl_RESPONSE_EARLY (upregulated gene sets, C2): 0.670
ES ENK_UV_RESPONSE_KERATINOCYTE_UP (upregulated gene sets, C2): 0.501
ES FERREIRA_EWINGS_SARCOMA_UNSTABLE_VS_STABLE_DN (upregulated gene sets, C2): 0.623
ES GINESTIER_BREAST_CANCER_ZNF217_AMPLIFIED_DN (upregulated gene sets, C2): 0.481
ES HORTON_SREBF_TARGETS (upregulated gene sets, C2): 0.807
ES KEGG_SYSTEMIC_LUPUS_ERYTHEMATOSUS (upregulated gene sets, C2): 0.661
ES KIM_ALL_DISORDERS_DURATION_CORR_DN (upregulated gene sets, C2): 0.615
ES LEONARD_HYPDXIA (upregulated gene sets, C2): 0.716
ES MARTENS_TRETINOIN_RESPONSE_UP (upregulated gene sets, C2): 0.552
ES NIKOLSKY_BREAST_CANCER_16P13_AMPLICON (upregulated gene sets, C2): 0.699
ES NIKOLSKY_BREAST_CANCER_16Q24_AMPLICON (upregulated gene sets, C2): 0.706
ES QI_HYPOXIA (upregulated gene sets, C2): 0.559
ES REACTOME_AMYLOIDS (upregulated gene sets, C2): 0.710
ES REACTOME_CHOLESTEROL_BIOSYNTHESIS (upregulated gene sets, C2): 0.821
ES REACTOME_PEPTIDE_CHAIN_ELONGATION (upregulated gene sets, C2): 0.564
ES REACTOME_RNA_POL_I_PROMOTER_OPENING (upregulated gene sets, C2): 0.769
ES REACTOME_RNA_POL_I_TRANSCRIPTION (upregulated gene sets, C2): 0.622
ES RICKMAN_METASTASIS_DN (upregulated gene sets, C2): 0.556
ES SCHMIDT_POR_TARGETS_IN_LIMB_BUD_UP (upregulated gene sets, C2): 0.788
NES AMUNDSON_GAMMA_RADIATION_RESPONSE (upregulated gene sets, C2): 2.280
NES BANDRES_RESPONSE_TO_CARMUSTIN_MGMT_48HR_DN (upregulated gene sets, C2): 2.308
NES CAMPS_COLON_CANCER_COPY_NUMBER_UP (upregulated gene sets, C2): 2.238
NES DACOSTA_UV_RESPONSE_VIA_ERCC3_UP (upregulated gene sets, C2): 2.272
NES DAIRKEE_TERT_TARGETS_UP (upregulated gene sets, C2): 2.400
NES DEBIASI_APOPTOSIS_BY_REOVIRUS_INFECTION_DN (upregulated gene sets, C2): 2.211
NES DIRMEIER_LMPl_RESPONSE_EARLY (upregulated gene sets, C2): 2.238
NES ENK_UV_RESPONSE_KERATINOCYTE_UP (upregulated gene sets, C2): 2.338
NES FERREIRA_EWINGS_SARCOMA_UNSTABLE_VS_STABLE_DN (upregulated gene sets, C2): 2.223
NES GINESTIER_BREAST_CANCER_ZNF217_AMPLIFIED_DN (upregulated gene sets, C2): 2.203
NES HORTON_SREBF_TARGETS (upregulated gene sets, C2): 2.353
NES KEGG_SYSTEMIC_LUPUS_ERYTHEMATOSUS (upregulated gene sets, C2): 2.294
NES KIM_ALL_DISORDERS_DURATION_CORR_DN (upregulated gene sets, C2): 2.457
NES LEONARD_HYPDXIA (upregulated gene sets, C2): 2.369
NES MARTENS_TRETINOIN_RESPONSE_UP (upregulated gene sets, C2): 2.244
NES NIKOLSKY_BREAST_CANCER_16P13_AMPLICON (upregulated gene sets, C2): 2.231
NES NIKOLSKY_BREAST_CANCER_16Q24_AMPLICON (upregulated gene sets, C2): 2.371
NES QI_HYPOXIA (upregulated gene sets, C2): 2.230
NES REACTOME_AMYLOIDS (upregulated gene sets, C2): 2.374
NES REACTOME_CHOLESTEROL_BIOSYNTHESIS (upregulated gene sets, C2): 2.387
NES REACTOME_PEPTIDE_CHAIN_ELONGATION (upregulated gene sets, C2): 2.220
NES REACTOME_RNA_POL_I_PROMOTER_OPENING (upregulated gene sets, C2): 2.411
NES REACTOME_RNA_POL_I_TRANSCRIPTION (upregulated gene sets, C2): 2.250
NES RICKMAN_METASTASIS_DN (upregulated gene sets, C2): 2.370
NES SCHMIDT_POR_TARGETS_IN_LIMB_BUD_UP (upregulated gene sets, C2): 2.303
ES HALLMARK_ADIPOGENESIS [2]: 0.383
ES HALLMARK_ANDROGEN_RESPONSE [2]: 0.356
ES HALLMARK_APICAL_JUNCTION [2]: 0.359
ES HALLMARK_APOPTOSIS [2]: 0.390
ES HALLMARK_BILE_ACID_METABOLISM [2]: 0.361
ES HALLMARK_CHOLESTEROL_HOMEOSTASIS [2]: 0.656
ES HALLMARK_COAGULATION [2]: 0.474
ES HALLMARK_DNA_REPAIR [2]: 0.336
ES HALLMARK_ESTROGEN_RESPONSE_EARLY [2]: 0.354
ES HALLMARK_ESTROGEN_RESPONSE_LATE [2]: 0.335
ES HALLMARK_FATTY_ACID_METABOLISM [2]: 0.392
ES HALLMARK_GLYCOLYSIS [2]: 0.321
ES HALLMARK_HEME_METABOLISM [2]: 0.367
ES HALLMARK_HYPOXIA [2]: 0.479
ES HALLMARK_MTORC1_SIGNALING [2]: 0.436
ES HALLMARK_MYOGENESIS [2]: 0.560
ES HALLMARK_NOTCH_SIGNALING [2]: 0.494
ES HALLMARK_OXIDATIVE_PHOSPHORYLATION [2]: 0.351
ES HALLMARK_P53_PATHWAY [2]: 0.471
ES HALLMARK_PEROXISOME [2]: 0.379
ES HALLMARK_PI3K_AKT_MTOR_SIGNALING [2]: 0.426
ES HALLMARK_UNFOLDED_PROTEIN_RESPONSE [2]: 0.433
ES HALLMARK_UV_RESPONSE_UP [2]: 0.436
ES HALLMARK_WNT_BETA_CATENIN_SIGNALING [2]: 0.481
ES HALLMARK_XENOBIOTIC_METABOLISM [2]: 0.348
NES HALLMARK_ADIPOGENESIS [2]: 1.653
NES HALLMARK_ANDROGEN_RESPONSE [2]: 1.381
NES HALLMARK_APICAL_JUNCTION [2]: 1.422
NES HALLMARK_APOPTOSIS [2]: 1.615
NES HALLMARK_BILE_ACID_METABOLISM [2]: 1.330
NES HALLMARK_CHOLESTEROL_HOMEOSTASIS [2]: 2.374
NES HALLMARK_COAGULATION [2]: 1.628
NES HALLMARK_DNA_REPAIR [2]: 1.407
NES HALLMARK_ESTROGEN_RESPONSE_EARLY [2]: 1.458
NES HALLMARK_ESTROGEN_RESPONSE_LATE [2]: 1.358
NES HALLMARK_FATTY_ACID_METABOLISM [2]: 1.605
NES HALLMARK_GLYCOLYSIS [2]: 1.363
NES HALLMARK_HEME_METABOLISM [2]: 1.548
NES HALLMARK_HYPOXIA [2]: 1.984
NES HALLMARK_MTORC1_SIGNALING [2]: 1.917
NES HALLMARK_MYOGENESIS [2]: 2.098
NES HALLMARK_NOTCH_SIGNALING [2]: 1.473
NES HALLMARK_OXIDATIVE_PHOSPHORYLATION [2]: 1.548
NES HALLMARK_P53_PATHWAY [2]: 1.986
NES HALLMARK_PEROXISOME [2]: 1.483
NES HALLMARK_PI3K_AKT_MTOR_SIGNALING [2]: 1.634
NES HALLMARK_UNFOLDED_PROTEIN_RESPONSE [2]: 1.739
NES HALLMARK_UV_RESPONSE_UP [2]: 1.773
NES HALLMARK_WNT_BETA_CATENIN_SIGNALING [2]: 1.483
NES HALLMARK_XENOBIOTIC_METABOLISM [2]: 1.415
